According to ChEMBL document CHEMBL3988442, “University of Dundee, Small-Polar-MMV Screening Library” (2021):
“And” between values parts separate entries of the source, which are not always exact repeats. Equal values may be shown once.

Columns and labels:
Plasmodium falciparum [1] = test: Plasmodium falciparum sporozoite viability assay; assay type: functional, organism-based; conditions: for IC50: Plasmodium falciparum
[2] = system: Mycobacterium tuberculosis; test: Cornell M. t heat shock assay; assay type: functional, organism-based; conditions: Mycobacterium tuberculosis
Plasmodium falciparum [3] = test: Calibr Malaria Delayed Death Assay SOP; assay type: functional, organism-based; conditions: for IC50: Plasmodium falciparum
Schistosoma mansoni = test: High throughput screening of compounds against Schistosoma mansoni motility; assay type: functional; design: dose or concentration left out as unconfirmed
[4] = microbe, parasite or virus in culture; conditions: Mycobacterium tuberculosis, 96 h, read-out: pIC50 (converted)
[5] = microbe, parasite or virus in culture; conditions: Mycobacterium tuberculosis, 72 h, read-out: pIC50 (converted)
Histidine--tRNA ligase = target: T1, Histidine--tRNA ligase (Leishmania infantum, UniProt A4I591); test: Leishmania infantum Histidine tRNA synthetase (LdHisRS); assay type: functional
T1 sequence (A4I591 whole entry): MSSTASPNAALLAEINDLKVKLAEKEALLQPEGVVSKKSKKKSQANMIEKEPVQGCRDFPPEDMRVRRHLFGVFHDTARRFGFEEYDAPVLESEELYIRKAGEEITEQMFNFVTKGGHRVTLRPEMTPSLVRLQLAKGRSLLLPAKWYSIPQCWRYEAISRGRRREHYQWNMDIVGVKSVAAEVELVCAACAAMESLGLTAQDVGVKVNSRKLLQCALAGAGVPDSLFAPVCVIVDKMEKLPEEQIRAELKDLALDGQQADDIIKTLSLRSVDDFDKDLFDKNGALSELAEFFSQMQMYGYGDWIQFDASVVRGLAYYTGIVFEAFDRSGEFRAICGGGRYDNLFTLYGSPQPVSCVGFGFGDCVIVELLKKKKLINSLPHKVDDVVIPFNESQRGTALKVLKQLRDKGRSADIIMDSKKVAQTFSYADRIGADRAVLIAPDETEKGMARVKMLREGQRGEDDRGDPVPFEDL

Leishmania donovani = test: Leishmania intramacrophage assay; assay type: functional, organism-based; conditions: Leishmania donovani
[6] = target: T2, Coenzyme A biosynthesis bifunctional protein CoaBC (Mycobacterium tuberculosis (strain ATCC 25618 / H37Rv), UniProt P9WNZ1); test: Biomol Green assay for MtCoaBC inhibitor, OD650 read; assay type: functional
T2 sequence (P9WNZ1 whole entry): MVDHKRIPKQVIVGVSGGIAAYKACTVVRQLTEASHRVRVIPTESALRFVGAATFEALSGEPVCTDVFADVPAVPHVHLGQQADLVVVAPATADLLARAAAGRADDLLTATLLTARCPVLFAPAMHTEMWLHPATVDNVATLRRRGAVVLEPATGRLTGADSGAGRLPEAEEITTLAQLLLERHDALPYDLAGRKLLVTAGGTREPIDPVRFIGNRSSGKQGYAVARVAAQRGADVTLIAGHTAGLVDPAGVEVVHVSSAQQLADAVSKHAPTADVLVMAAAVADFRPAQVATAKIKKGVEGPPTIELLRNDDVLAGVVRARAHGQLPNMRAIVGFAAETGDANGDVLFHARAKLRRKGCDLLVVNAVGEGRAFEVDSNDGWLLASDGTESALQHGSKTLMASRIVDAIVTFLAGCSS

[7] = In vitro enzyme assay to detect hydrolysis of chlorophenol red-beta-D-[…] directly proportional to the number of Toxoplasma stably expressing beta-galactosidase; assay type: functional, organism-based, Toxoplasma gondii; conditions: Toxoplasma gondii

Compound | IC50 (Plasmodium falciparum [1]) [nM] | pIC50 (Plasmodium falciparum [1]) | also measured
Cc1cccc(NC2CCN(C(=O)Nc3ccc(F)c(F)c3)CC2)n1 | 7620 |  | IC50 [2]: > 49 µM
Cc1ccc(-c2ccc(C3CNCCO3)nc2)cc1.Cl (stereo not drawn) | 23.1 | 7.716 | pIC50 (Plasmodium falciparum [3]): 6.712; IC50 (Plasmodium falciparum [3]): 108 nM
Cc1csc(NC(=O)c2cnc(C3CCCN3)cn2)n1.Cl (stereo not drawn) | 153 | 7.11 | IC50 [2]: > 100 µM
CC(C)(C)n1cc(C2=CCN(CCc3ccccc3)CC2)cn1 | 1530 | 5.875 | pIC50 (Plasmodium falciparum [3]): 6.257; IC50 (Plasmodium falciparum [3]): 571 nM; Percent Effect (Schistosoma mansoni): 26.35%
COC(=O)CSCc1noc(-c2ccc(Cl)cc2)n1 | 454 | 6.573 | IC50 [4]: > 50.1 µM; IC50 [5]: > 50.1 µM
O=C(Nc1cccnc1)C1Cc2nc(-c3ccsc3)sc2N1CC1CC1.O=C(O)C(F)(F)F (stereo not drawn) | 3000 | 5.393 | IC50 (Histidine--tRNA ligase): 27.4 µM and 35.2 µM
CC(C)C(=O)N1CCN(Cc2csc(-c3ncccn3)n2)CC1 | 1420 | 5.96 | IC50 (Leishmania donovani): > 50.1 µM
CC(C)c1nc2cc(NC(=O)c3n[nH]c4c3CCC4)ccc2n1C |  | 6.833 and 6.465 | IC50 [6]: > 30.2 µM
Cc1cn2c(n1)C(CNCC1=Cc3cc(Cl)ccc3OC1)CCC2 (stereo not drawn) | 908 | 5.932 | pIC50 (Plasmodium falciparum [3]): 5.847; IC50 (Plasmodium falciparum [3]): 1660 nM
Cl.Clc1ccc(-c2ccc(C3CNCCO3)nc2)cc1 (stereo not drawn) | 75 |  | pIC50 (Plasmodium falciparum [3]): 6.505; IC50 (Plasmodium falciparum [3]): 433 nM
O[C@H]1CN(CCOc2ccc(F)cc2)CC[C@@]12CCCO2 | 2550 | 5.66 | 
CCN1CCN(Cc2coc(-c3cccc(F)c3)n2)CC1 | 800 | 6.19 | 
COc1ccc2cc(C3CN(C(=O)CCNC(C)=O)CCO3)ccc2c1 (stereo not drawn) | 48.6 | 7.142 | 
CC(C)c1nc2c(n1C)CCN(Cc1nc(-c3ccsc3)no1)C2 |  | 5.081 and 5.405 | 
Cc1cn2c(n1)C(CNCC1=Cc3ccccc3OC1)CCC2 (stereo not drawn) | 62.3 | 7.385 | pIC50 (Plasmodium falciparum [3]): 5.983; IC50 (Plasmodium falciparum [3]): 903 nM
Cc1ccc(Nc2nccc(C3CCN(CC(N)=O)C3)n2)nc1 (stereo not drawn) | 21 | 7.48 | 
Clc1ccc2nc(N3CCC(NCCCC4CCOC4)CC3)sc2c1 (stereo not drawn) | 3770 | 5.724 | 
c1cnc(-c2nc(CN3CCN(CC4CC4)CC3)cs2)nc1 | 2260 | 5.511 | IC50 (Leishmania donovani): > 50.1 µM
O=C(Nc1cccc(Cl)c1)c1nn(C2CCS(=O)(=O)C2)c2c1CCCC2 (stereo not drawn) | 8150 | 5.123 | 
Cc1cc(C)n(CC2CN(Cc3nc4ccccc4s3)CCO2)n1 (stereo not drawn) | 1720 | 6.064 | 
O=C(Nc1ccc(Cl)cn1)c1nn(C2CCS(=O)(=O)C2)c2c1CCCC2 (stereo not drawn) |  | 5.512 and 5.897 | 
CC(=O)Nc1ncc(S(=O)(=O)Nc2ccc3c(c2)OCCO3)s1 | 144 | 6.905 | IC50 [7]: > 50.1 µM
Cc1ccc(Nc2nccc(C3CCCN(CC(=O)N(C)C)C3)n2)nc1 (stereo not drawn) | 2680 | 5.724 | 
COC(=O)CCCNC(=O)N1CCc2c([nH]c3ccc(Cl)cc23)C1 |  | 5.609 and 6.035 | 

Compound | IC50 (Plasmodium falciparum [1]) [nM] | pIC50 (Plasmodium falciparum [1]) | also measured
CC(=O)N1Cc2ccccc2CC1C(=O)Nc1cc(C)ccn1 (stereo not drawn) | 41.2 | 7.317 | 
Cc1cncc(NC(=O)c2ccc(CN3CC[C@H](O)C3)cc2)c1 | 80.2 | 6.801 | 
COC(=O)CSCc1noc(-c2ccc(C)cc2)n1 |  | 6.885 and 7.313 | IC50 [4]: > 50.1 µM; IC50 [5]: 24.4 µM
COCCNC(=O)Nc1cc2c(cc1SC)OCCO2 | 555 | 6.283 | 
OCC1CCCN1c1cc(NCCc2ccsc2)ncn1 (stereo not drawn) | 59.6 | 7.515 | 
Cc1cccc(C(=O)Nc2ccc(OC3CCN(C)CC3)cc2)c1 | 119 | 7.031 | 
CC(C)(C)n1ncc2c1CCCC2NCc1ccc2c(c1)OCCO2 (stereo not drawn) | 411 | 6.564 | 
CC/N=c1\nc(NCC)nc2n1C(O)(Nc1ccc(C)cc1C)CS2 (stereo not drawn) | 2830 | 5.511 | 
CCC(=O)NC1CCCN(C(=O)Nc2cc(-c3ccccc3)on2)C1 (stereo not drawn) | 187 | 6.751 | 
Cc1c(F)cc(C(=O)O)cc1S(=O)(=O)Nc1ccc2c(c1)OCCO2 | 3790 | 5.599 | 
CC(C)c1n[nH]c(C(=O)Nc2ccnn2C(C)C)c1Br | 970 | 6.017 | 
COCCN(C)c1ccc(NCc2cscn2)nc1 | 391 | 6.387 | 
C(=C\c1ccc(CN2CCCC2)cn1)/c1ccccc1 | 113 | 7.171 | 
Cc1csc(NC(=O)c2cnc(C3CCCN(C)C3)cn2)n1 (stereo not drawn) |  | 5.674 and 6.096 | 
Cc1ccnc(NC(=O)c2ccc(Cl)o2)c1 |  | 7.621 and 7.995 | 
FC(F)(F)Oc1ccc(-c2noc([C@@H]3Cc4nc[nH]c4CN3)n2)cc1 | 221 | 6.357 | IC50 [4]: > 50.1 µM; IC50 [5]: > 50.1 µM
CN(C)CC(C)(O)CNC(=O)Nc1sc2ccccc2c1Cl (stereo not drawn) | 2690 | 5.506 | 
COc1cc(NC(=O)c2ccc(CN3CC[C@H](O)C3)cc2)cc(OC)c1 | 175 | 6.645 | 
Cc1cccc(Nc2cc(C3CCCN(CC(N)=O)C3)ccn2)n1.O=CO.O=CO (stereo not drawn) | 186 | 6.742 | 
CC(C)(C)c1ncc(C(=O)NCCSc2ccccn2)c(O)n1 | 63.2 | 7.35 | 
Cc1nc(COc2ccc(OC3CCCCNC3=O)cc2)oc1C (stereo not drawn) | 39 | 7.451 | 
CN1CCCC1CCn1ccnc1-c1nc(-c2ccccc2)no1 (stereo not drawn) | 71.6 | 6.882 | 
Cn1cc(CCC(=O)NS(=O)(=O)N2CCCc3ccccc32)cn1 | 157 | 6.583 | 
CSc1ccccc1C(=O)Nc1ccc(OC2CCN(C)CC2)cc1 |  | 6.337 and 5.999 | 

Compound | IC50 (Plasmodium falciparum [1]) [nM] | pIC50 (Plasmodium falciparum [1]) | also measured
c1ccc(-c2nc(CN3CCc4c(ncn4C4CC4)C3)cs2)cc1 | 2990 | 5.414 | 
CCn1cc(NC(=O)Nc2ccc3c(c2)OCCO3)cn1 |  | 7.305 and 6.856 | 
Cc1ccsc1-c1cccc(-c2ccn(CC3CCNC3)n2)c1 (stereo not drawn) | 2580 | 5.798 | IC50 [4]: 21.3 µM; IC50 [5]: 23.8 µM
CNc1cc(C)nc(N2C[C@@H](C(=O)O)[C@H](C3CC3)C2)n1 | 989 | 5.907 | 
NC(=O)C1CN(c2ccc3cc(Br)ccc3n2)CCO1 (stereo not drawn) |  | 7.699 and 7.366 | 
CCn1cc(C(=O)N2CCOC(c3nc(-c4cccs4)no3)C2)cn1 (stereo not drawn) |  | 5.925 and 5.539 | 
CC(C)c1nc2c(n1C)CCN(Cc1nc(-c3ccoc3)no1)C2 | 3150 | 5.631 | 
COc1ccc(-c2ccc(C3CNCCO3)nc2)cc1.Cl (stereo not drawn) | 73 | 7.404 | pIC50 (Plasmodium falciparum [3]): 6.456; IC50 (Plasmodium falciparum [3]): 190 nM
CN(C)CCNc1ccc(-c2nc(-c3ccccc3F)no2)cn1 |  | 7.212 and 6.908 | 
CC1CCCN(Cc2csc(-c3ncccn3)n2)CC1 (stereo not drawn) | 4800 | 5.365 | 
CN(C)CCNC(=O)C1Cc2nc(-c3ccccc3)sc2N1CC1CC1 (stereo not drawn) | 3590 |  | IC50 [4]: > 50.1 µM; IC50 [5]: > 50.1 µM
COc1ccc2cc(C3CN(C(=O)CN4CCCC4)CCO3)ccc2c1 (stereo not drawn) | 7630 | 5.408 | 
CC(=O)Nc1nc(C(=O)N2CCCC(n3cncn3)C2)cs1 (stereo not drawn) | 3370 | 5.727 | 
CC(NC(=O)c1cc(C(C)C)[nH]n1)C(=O)Nc1ccccc1 (stereo not drawn) | 48.9 | 7.217 | 
Cn1cnnc1C1CCN(C(=O)CCCOc2ccccc2F)CC1 | 1300 | 6.053 | 
CCC(CC)c1nnc(NC(=O)N2CCCC(NC(C)=O)C2)s1 (stereo not drawn) |  | 5.262 and 5.718 | 
COCc1noc(-c2ccc(N3CCC[C@H]3CO)nc2)n1 | 60.2 | 7.269 | 
CSc1cc2c(cc1NC(=O)NCC1CCOC1)OCCO2 (stereo not drawn) | 218 | 6.419 | 
CCc1noc(CN(Cc2ccc3c(c2)OCO3)C2CCCC2)n1 |  | 5.474 and 5.085 | 
CCC1CN(C(=O)c2ccc(O)cn2)CCC(=O)N1Cc1ccccc1 (stereo not drawn) |  | 5.529 and 5.955 | 
CNC(=O)CCC(=O)N1CCOC(c2ccc3cc(OC)ccc3c2)C1 (stereo not drawn) | 83 | 7.215 | 
COc1cc(F)c(NCc2nc3ccccc3n2C)cc1OC | 260 |  | IC50 (Histidine--tRNA ligase): 59.7 µM and 57.6 µM
Cc1ccnc(NC(=O)CSCc2cccnc2)c1 |  | 7.141 and 6.819 | 
